Measured values as given in patent US7598234B2, “Steroid derived antibiotics” (Brigham Young University, priority 1998, dated 2009).
Values after ≈ are worked out from the molar mass of the structure shown.

Tests used:
[1] = system: Gram-negative bacteria; assay: Sensitization to erythromycin, ester and amide side chain compounds (Table 14); format: cell-based; conditions: in words; compared with Table 14 compounds
Description: (§1) Aliquots of 1 mL of the suspension were added to test tubes containing 1 mL TSB and incrementally varied concentrations of cholic acid derivatives and/or erythromycin or novobiocin. In the sensitization experiments, erythromycin or novobiocin were added 15 minutes later than the cholic acid derivatives. The samples were subjected to stationary incubation at 37° C. for 24 hours. Sample turbidity was determined by measuring absorption at 760 nm (HP 8453 UV-Visible Chemstation, Hewlett Packard). Additionally, an alliquot from each of the samples showing no measurable turbidity was subcultured on TSA plates (alliquots were diluted to provide fewer than 300 CFU). Colonies that grew on the subculture after overnight incubation were counted and the number of CFU/mL in the samples were calculated. The calculated values were compared to the number of CFU/mL in the original inoculum.
Ability to permeabilize outer membrane: Compounds 11, 106, and 108-114 (FIG. 1) were tested for antibiotic activity. They were also tested for the ability to permeabilize the outer membrane of Gram-negative bacteria, causing sensitization to hydrophobic antibiotics that cannot cross the outer membrane. The permeabilization of the outer membrane was measured using erythromycin and novobiocin.
Ester and amide side chains: Additional compounds, for example, compounds with amide and ester side chains, were tested.

[2] = system: E. coli (ATCC 25922); assay: MIC and MBC measurement with E. coli (ATCC 25922); format: cell-based, Escherichia coli; conditions: Table 16; E. coli (ATTC 25922)
Excerpt: (§2) General: Microorganisms. Reference strains were purchased from the American Type Culture Collection (Rockville, Md.) or Bactrol disks from Difeo Laboratories (Detroit, Mich.). The following specific ATCC strains were used: 10798 Escherichia coli, 25922 Escherichia coli, 13883 Klebsiella pneumoniae, 27853 Pseudomonas aeruginosa, 14028 Salmonella typhimurium, 29212 Enterococcus faecalis, 25923 Staphylococcus aureus, 19615 Streptococcus pyogenes, and 90028 Candida albicans. Bacterial strains were maintained on Mueller-Hinton agar plates, and Candida albicans was maintained on Sabouraud Dextrose agar plates.
(§3) Tryptic soy broth (TSB) was made by dissolving 27.5 grams of tryptic soy broth without dextrose (DIFCO Laboratories) in 1 liter of deionized water and sterilizing at 121° C. for 15 minutes. Solid agar (TSA) plates were made by dissolving 6.4 grams of tryptic soy broth and 12 grams of agar (purified grade, Fischer Scientific) in 800 mL of deionized water and sterilizing at 121° C. for 20 minutes. Aliquots (20 mL) of the homogeneous solution were then poured in sterile plastic petri dishes (100×15 mm, Fisher Scientific). Solutions of compounds were made by dissolving the HCl salt of the respective compound into an appropriate amount of deionized and sterilized water followed by microfiltration.
as §1, with “inoculum. […]” for “inoculum.”

[3] = system: E. coli (ATCC 25922); assay: Sensitization to erythromycin, E. coli (ATCC 25922); format: cell-based, Escherichia coli; conditions: Table 16; E. coli
Description: FICs can be performed by checkerboard titrations of compounds in one dimension of a microtiter plate, and of antibiotics in the other dimension, for example. The FIC is calculated by looking at the impact of one antibiotic on the MIC of the other and vice versa. […] Preferably, an FIC of less than 0.5 is obtained for synergism. As used herein, FIC can be determined as follows:
as §1
Concentrations of 0.5, 1.0 or 3.0 μg/mL of these antibiotics were used, and the concentrations of the cholic acid derivatives required to inhibit bacterial growth of Gram-negative strains were determined.
(§4) Minimum inhibition concentrations (MIC) and minimum hemolytic concentrations (MHC) were measured as described in Li et al., Antimicrob. Agents. Chemother., 1999, 43, 1347.

[4] = system: Staphylococcus aureus ATCC 25923; assay: MIC and MBC measurement with Staphylococcus aureus ATCC 25923; format: cell-based; conditions: Table 16; S. aureus (ATTC 25923)
Excerpt: as §2, §3
as §1, with “inoculum. […]” for “inoculum.”

[5] = Description: as §4

Compound | activity as a permeabilizer [1] | MIC (MIC^b) [2] [µg/mL] | c: concentration required to lower the MIC of erythromycin from 36 to 1 μg/mL [3] [µg/mL] | MIC (MIC^a) [4] [µg/mL] | MHC (minimum hemolytic concentration) [5] [µg/mL]
C[C@H](CCCO)[C@H]1CC[C@H]2[C@@H]3[C@H](N)C[C@@H]4C[C@H](N)CC[C@]4(C)[C@H]3C[C@H](N)[C@]12C [Compound 206] | ineffective as a permeabilizer |  |  |  | 
C[C@H](CCC(=O)O)[C@H]1CC[C@H]2[C@@H]3[C@H](OC(=O)CN)C[C@@H]4C[C@H](OC(=O)CN)CC[C@]4(C)[C@H]3C[C@H](OC(=O)CN)[C@]12C [Compound 327] |  | >100 | >100 | >100 | >100
CCCCCCCCOC(=O)CC[C@@H](C)[C@H]1CC[C@H]2[C@@H]3[C@H](OC(=O)CN)C[C@@H]4C[C@H](OC(=O)CN)CC[C@]4(C)[C@H]3C[C@H](OC(=O)CN)[C@]12C [Compound 341] |  | 1.0 (≈ 1.45 µM) | 0.7 | 1.8 (≈ 2.6 µM) | 
CCCCCCCCOC(=O)CC[C@@H](C)[C@H]1CC[C@H]2[C@@H]3[C@H](OC(=O)CCCN)C[C@@H]4C[C@H](OC(=O)CCCN)CC[C@]4(C)[C@H]3C[C@H](OC(=O)CCCN)[C@]12C [Compound 343] |  | 3.5 (≈ 4.51 µM) | 3.5 | 1.2 (≈ 1.55 µM) | 
